The values below come from PubChem BioAssay AID1259407 (Chemical Carcinogenesis Research Information System (CCRIS), 2018).

Active and inactive are the calls of the source. The rule behind the calls is not given here.

The series deals with CCRIS mutagenicity, Ames/micronucleus/aberration tests. The experiment in a line: CCRIS mutagenicity studies.
Setting [1] is: Test System: AMES SALMONELLA TYPHIMURIUM, Strain/Indicator: TA100, Metabolic Activation: NONE, Method: STANDARD PLATE.
Where [2] appears, read: Test System: AMES SALMONELLA TYPHIMURIUM, Strain/Indicator: TA1535, Metabolic Activation: NONE, Method: STANDARD PLATE.
[3] abbreviates: Test System: AMES SALMONELLA TYPHIMURIUM, Strain/Indicator: TA98, Metabolic Activation: NONE, Method: PREINCUBATION
Setting [4] is: Test System: AMES SALMONELLA TYPHIMURIUM, Strain/Indicator: TA100, Metabolic Activation: NONE, Method: PREINCUBATION

As to `Cc1c(C(=O)O)c(O)cc2c1C(=O)c1c(O)c([C@@H]3O[C@H](CO)[C@@H](O)[C@H](O)[C@H]3O)c(O)c(O)c1C2=O`, the mutagenic call is, setting by setting: (Test System: AMES SALMONELLA TYPHIMURIUM, Strain/Indicator: TA98, Metabolic Activation: HAMSTER, LIVER, S-9, AROCLOR 1254, Method: STANDARD PLATE) “inactive; negative”; (Test System: AMES SALMONELLA TYPHIMURIUM, Strain/Indicator: TA98, Metabolic Activation: NONE) “inactive; negative”; (Test System: AMES SALMONELLA TYPHIMURIUM, Strain/Indicator: TA98, Metabolic Activation: NONE, Method: STANDARD PLATE) “inactive; negative”; (Test System: AMES SALMONELLA TYPHIMURIUM, Strain/Indicator: TA98, Metabolic Activation: RAT, LIVER, S-9, AROCLOR 1254 (10 OR 30%)) “inactive; negative”; (Test System: AMES SALMONELLA TYPHIMURIUM, Strain/Indicator: TA98, Metabolic Activation: RAT, LIVER, S-9, AROCLOR 1254, Method: STANDARD PLATE) “inactive; negative”; (Test System: AMES SALMONELLA TYPHIMURIUM, Strain/Indicator: TA100, Metabolic Activation: HAMSTER, LIVER, S-9, AROCLOR 1254, Method: STANDARD PLATE) “inactive; negative”. Besides, the mutagenic call is “inactive; negative” (Test System: AMES SALMONELLA TYPHIMURIUM, Strain/Indicator: TA100, Metabolic Activation: NONE); “inactive; negative” under setting [1]; “inactive; negative” (Test System: AMES SALMONELLA TYPHIMURIUM, Strain/Indicator: TA100, Metabolic Activation: RAT, LIVER, S-9, AROCLOR 1254 (10%)); “inactive; negative” (Test System: AMES SALMONELLA TYPHIMURIUM, Strain/Indicator: TA100, Metabolic Activation: RAT, LIVER, S-9, AROCLOR 1254 (10 OR 30%)); “inactive; negative” (Test System: AMES SALMONELLA TYPHIMURIUM, Strain/Indicator: TA100, Metabolic Activation: RAT, LIVER, S-9, AROCLOR 1254, Method: STANDARD PLATE); “inactive; negative” (Test System: AMES SALMONELLA TYPHIMURIUM, Strain/Indicator: TA1535, Metabolic Activation: HAMSTER, LIVER, S-9, AROCLOR 1254, Method: STANDARD PLATE). The mutagenic call is, setting by setting: (Test System: AMES SALMONELLA TYPHIMURIUM, Strain/Indicator: TA1535, Metabolic Activation: NONE) “inactive; negative”; under setting [2], “inactive; negative”; (Test System: AMES SALMONELLA TYPHIMURIUM, Strain/Indicator: TA1535, Metabolic Activation: RAT, LIVER, S-9, AROCLOR 1254 (10 OR 30%)) “inactive; negative”; (Test System: AMES SALMONELLA TYPHIMURIUM, Strain/Indicator: TA1535, Metabolic Activation: RAT, LIVER, S-9, AROCLOR 1254, Method: STANDARD PLATE) “inactive; negative”; (Test System: AMES SALMONELLA TYPHIMURIUM, Strain/Indicator: TA1537, Metabolic Activation: HAMSTER, LIVER, S-9, AROCLOR 1254, Method: STANDARD PLATE) “inactive; negative”; (Test System: AMES SALMONELLA TYPHIMURIUM, Strain/Indicator: TA1537, Metabolic Activation: NONE) “inactive; negative”. The mutagenic call runs as follows: (Test System: AMES SALMONELLA TYPHIMURIUM, Strain/Indicator: TA1537, Metabolic Activation: NONE, Method: STANDARD PLATE) “inactive; negative”; (Test System: AMES SALMONELLA TYPHIMURIUM, Strain/Indicator: TA1537, Metabolic Activation: RAT, LIVER, S-9, AROCLOR 1254 (10 OR 30%)) “inactive; negative”; (Test System: AMES SALMONELLA TYPHIMURIUM, Strain/Indicator: TA1537, Metabolic Activation: RAT, LIVER, S-9, AROCLOR 1254, Method: STANDARD PLATE) “inactive; negative”; (Test System: AMES SALMONELLA TYPHIMURIUM, Strain/Indicator: TA1538, Metabolic Activation: HAMSTER, LIVER, S-9, AROCLOR 1254, Method: STANDARD PLATE) “inactive; negative”; (Test System: AMES SALMONELLA TYPHIMURIUM, Strain/Indicator: TA1538, Metabolic Activation: NONE, Method: STANDARD PLATE) “inactive; negative”; (Test System: AMES SALMONELLA TYPHIMURIUM, Strain/Indicator: TA1538, Metabolic Activation: RAT, LIVER, S-9, AROCLOR 1254, Method: STANDARD PLATE) “inactive; negative”. The mutagenic call is “active; positive. reevaluation of results: positive” (Test System: MOUSE LYMPHOMA, Strain/Indicator: L5178Y (TK+/TK-), Metabolic Activation: NONE, Method: SUSPENSION/PLATE); “active; positive. reevaluation of results: positive” (Test System: MOUSE LYMPHOMA, Strain/Indicator: L5178Y (TK+/TK-), Metabolic Activation: RAT, LIVER, S-9, AROCLOR 1254, Method: SUSPENSION/PLATE); “inactive; negative” (Test System: UDS RODENT HEPATOCYTES, Strain/Indicator: THY INCORP, Metabolic Activation: NONE, Method: AUTORADIOGRAPHY).

With `CCCCCCC[N+](=O)[O-]`, the mutagenic call (Test System: UDS RAT HEPATOCYTES, Strain/Indicator: THY INCORP, Metabolic Activation: NONE) was “inactive; negative”.

`Cc1ccsc1`: the mutagenic call is “inactive; negative” under setting [3]; “inactive; negative” (Test System: AMES SALMONELLA TYPHIMURIUM, Strain/Indicator: TA98, Metabolic Activation: RAT, LIVER, S-9, AROCLOR 1254, Method: PREINCUBATION); “inactive; negative” under setting [4]; “inactive; negative” (Test System: AMES SALMONELLA TYPHIMURIUM, Strain/Indicator: TA100, Metabolic Activation: RAT, LIVER, S-9, AROCLOR 1254, Method: PREINCUBATION); “inactive; negative” (Test System: AMES SALMONELLA TYPHIMURIUM, Strain/Indicator: TA102, Metabolic Activation: NONE, Method: PREINCUBATION); “inactive; negative” (Test System: AMES SALMONELLA TYPHIMURIUM, Strain/Indicator: TA102, Metabolic Activation: RAT, LIVER, S-9, AROCLOR 1254, Method: PREINCUBATION).

In the case of `CC1OC1C` (configuration not stated), the mutagenic call is, setting by setting: (Test System: AMES SALMONELLA TYPHIMURIUM, Strain/Indicator: TA97, Metabolic Activation: HAMSTER, LIVER, S-9, AROCLOR 1254 (30%), Method: PREINCUBATION) “inactive; negative”; (Test System: AMES SALMONELLA TYPHIMURIUM, Strain/Indicator: TA97, Metabolic Activation: NONE, Method: PREINCUBATION) “inactive; negative”; (Test System: AMES SALMONELLA TYPHIMURIUM, Strain/Indicator: TA97, Metabolic Activation: RAT, LIVER, S-9, AROCLOR 1254 (30%), Method: PREINCUBATION) “inactive; negative”; (Test System: AMES SALMONELLA TYPHIMURIUM, Strain/Indicator: TA98, Metabolic Activation: HAMSTER, LIVER, S-9, AROCLOR 1254 (30%), Method: PREINCUBATION) “inactive; negative”; under setting [3], “inactive; negative”; (Test System: AMES SALMONELLA TYPHIMURIUM, Strain/Indicator: TA98, Metabolic Activation: RAT, LIVER, S-9, AROCLOR 1254 (30%), Method: PREINCUBATION) “inactive; negative”. Further, the mutagenic call is, setting by setting: (Test System: AMES SALMONELLA TYPHIMURIUM, Strain/Indicator: TA100, Metabolic Activation: HAMSTER, LIVER, S-9, AROCLOR 1254 (30%), Method: PREINCUBATION) “inactive; negative”; under setting [4], “inactive; negative”; (Test System: AMES SALMONELLA TYPHIMURIUM, Strain/Indicator: TA100, Metabolic Activation: RAT, LIVER, S-9, AROCLOR 1254 (30%), Method: PREINCUBATION) “inactive; negative”; (Test System: AMES SALMONELLA TYPHIMURIUM, Strain/Indicator: TA1535, Metabolic Activation: HAMSTER, LIVER, S-9, AROCLOR 1254 (30%), Method: PREINCUBATION) “active; positive”; (Test System: AMES SALMONELLA TYPHIMURIUM, Strain/Indicator: TA1535, Metabolic Activation: RAT, LIVER, S-9, AROCLOR 1254 (30%), Method: PREINCUBATION) “active; positive”; (Test System: AMES SALMONELLA TYPHIMURIUM, Strain/Indicator: TA1537, Metabolic Activation: HAMSTER, LIVER, S-9, AROCLOR 1254 (30%), Method: PREINCUBATION) “inactive; negative”. Moreover, the mutagenic call is, setting by setting: (Test System: AMES SALMONELLA TYPHIMURIUM, Strain/Indicator: TA1537, Metabolic Activation: NONE, Method: PREINCUBATION) “inactive; negative”; (Test System: AMES SALMONELLA TYPHIMURIUM, Strain/Indicator: TA1537, Metabolic Activation: RAT, LIVER, S-9, AROCLOR 1254 (30%), Method: PREINCUBATION) “inactive; negative”.

Regarding `COc1ccccc1CC1CO1` (configuration not stated), the mutagenic call reads like this: under setting [4], “active; positive”; under setting [1], “active; positive”; (Test System: AMES SALMONELLA TYPHIMURIUM, Strain/Indicator: TA1535, Metabolic Activation: NONE, Method: PREINCUBATION) “active; positive”; under setting [2], “active; positive”.
